Measurements taken from ChEMBL document CHEMBL1201862, “PubChem BioAssay data set” (2004).
Blank lines part the entries; values can stand above or below the compound they belong to. The source made the active and inactive calls.

Columns and labels:
[1] = biological target: Cytochrome P450 3A4 (Homo sapiens, UniProt P08684);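 also: CYP3A4 tested as one member of a cytochrome P450 panel screen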
[2] = test system: INS1; assay: INS-1E survival protection against cytokine death – cell-based, luminescence, retest, dose response (AID 449756); format: functional; details: Rattus norvegicus;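 also: cell death triggered by IL-1 beta plus TNF-alpha plus IFN-gamma mixture; protective hits raise ATP signal compared with cytokine alone wells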
[3] = biological target: Cytochrome P450 2C19 (Homo sapiens, UniProt P33261); assay: Cytochrome panel assay with activity outcomes. Panel member name: p450-cyp2c19 Compounds with AC50 equal or less than 10 uM are considered active; format: functional
[4] = biological target: Cytochrome P450 2D6 (Homo sapiens, UniProt P10635);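 also: CYP2D6 member of a cytochrome P450 panel assay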
[5] = Trypanosoma cruzi growth suppression in host cells – NIH3T3 host cells, beta-gal luminescence, confirmation (AID 2044); format: functional, cell-based;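 also: intracellular parasites grown in NIH/3T3 mouse fibroblasts as host cells; luminescent beta-galactosidase reporter signal from transgenic T. cruzi replicating inside host cells; inhibitors lower the luminescence signal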
[6] = NIH3T3 cell viability loss – ATP luminescence, mouse fibroblasts, counter-screen, dose response (AID 2010); format: functional, cell-based;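 also: cells exposed to compound for about 90 hours before reading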
[7] = biological target: T1, Rac GTPase-activating protein 1 (Homo sapiens, UniProt Q9H0H5); assay: blockers of MgcRacGAP-driven Rac1 GTP hydrolysis – biochemical, ADP Hunter fluorescence, primary and confirmatory, confirmation (AID 624330); format: functional
T1 sequence (Q9H0H5 whole entry): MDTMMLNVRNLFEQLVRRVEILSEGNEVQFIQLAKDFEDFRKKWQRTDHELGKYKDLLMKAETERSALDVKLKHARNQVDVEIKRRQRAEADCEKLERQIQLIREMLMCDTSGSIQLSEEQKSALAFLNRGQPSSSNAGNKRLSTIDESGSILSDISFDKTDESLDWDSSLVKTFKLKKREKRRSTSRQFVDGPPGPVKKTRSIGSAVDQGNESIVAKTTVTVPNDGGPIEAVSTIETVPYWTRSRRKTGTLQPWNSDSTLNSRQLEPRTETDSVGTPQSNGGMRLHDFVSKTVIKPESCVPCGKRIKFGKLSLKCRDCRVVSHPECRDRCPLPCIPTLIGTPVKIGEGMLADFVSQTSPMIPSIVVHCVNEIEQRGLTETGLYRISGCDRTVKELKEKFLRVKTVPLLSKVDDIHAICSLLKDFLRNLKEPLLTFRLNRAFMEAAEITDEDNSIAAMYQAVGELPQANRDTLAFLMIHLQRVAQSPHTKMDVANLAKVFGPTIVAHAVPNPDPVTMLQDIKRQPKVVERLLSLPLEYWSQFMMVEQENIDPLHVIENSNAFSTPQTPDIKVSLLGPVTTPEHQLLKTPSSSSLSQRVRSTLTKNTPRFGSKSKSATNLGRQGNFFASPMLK

[8] = biological target: T2, Corticotropin-releasing factor receptor 2/Corticotropin-releasing factor-binding protein (Homo sapiens, UniProt P24387+Q13324); assay: activators of CRF receptor 2 with binding protein – uHTS hits, confirmation (AID 602473); format: functional; details: read-out: EC50_Mean
T2 sequence (Q13324 whole entry): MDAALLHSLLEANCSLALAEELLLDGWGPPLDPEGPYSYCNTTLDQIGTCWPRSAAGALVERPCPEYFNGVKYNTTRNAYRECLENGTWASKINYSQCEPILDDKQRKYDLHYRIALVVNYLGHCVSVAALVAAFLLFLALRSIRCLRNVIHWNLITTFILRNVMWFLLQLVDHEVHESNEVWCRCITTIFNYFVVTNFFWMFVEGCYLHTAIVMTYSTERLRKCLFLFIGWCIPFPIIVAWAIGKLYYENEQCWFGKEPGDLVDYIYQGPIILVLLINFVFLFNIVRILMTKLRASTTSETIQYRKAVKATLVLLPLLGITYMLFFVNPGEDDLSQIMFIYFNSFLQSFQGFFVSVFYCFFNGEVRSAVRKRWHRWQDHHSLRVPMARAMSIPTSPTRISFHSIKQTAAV
T2 sequence (P24387 whole entry): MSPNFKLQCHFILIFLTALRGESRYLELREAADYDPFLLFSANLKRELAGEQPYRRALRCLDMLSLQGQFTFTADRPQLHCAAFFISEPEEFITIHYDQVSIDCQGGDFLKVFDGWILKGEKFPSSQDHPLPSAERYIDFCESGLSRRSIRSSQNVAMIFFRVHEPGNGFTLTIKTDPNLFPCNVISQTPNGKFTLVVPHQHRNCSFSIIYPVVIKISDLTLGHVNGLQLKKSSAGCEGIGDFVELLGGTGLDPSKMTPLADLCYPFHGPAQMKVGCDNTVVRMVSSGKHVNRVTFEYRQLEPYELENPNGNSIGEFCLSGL

Cytochrome P450 3A4, sequence (P08684 whole entry): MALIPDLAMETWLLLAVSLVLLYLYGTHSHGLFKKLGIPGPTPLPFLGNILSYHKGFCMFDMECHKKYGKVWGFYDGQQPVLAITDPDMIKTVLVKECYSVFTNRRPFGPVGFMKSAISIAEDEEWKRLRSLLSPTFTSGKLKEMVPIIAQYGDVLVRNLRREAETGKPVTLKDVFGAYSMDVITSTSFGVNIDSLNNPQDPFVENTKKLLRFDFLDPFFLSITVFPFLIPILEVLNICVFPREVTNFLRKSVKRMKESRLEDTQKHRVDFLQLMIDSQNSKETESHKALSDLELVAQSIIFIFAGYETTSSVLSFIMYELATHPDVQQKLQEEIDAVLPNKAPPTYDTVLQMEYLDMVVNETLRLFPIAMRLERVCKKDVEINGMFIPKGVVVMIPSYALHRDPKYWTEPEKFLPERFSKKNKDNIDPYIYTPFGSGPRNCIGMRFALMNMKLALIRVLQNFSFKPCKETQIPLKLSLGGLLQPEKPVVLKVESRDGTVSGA
Cytochrome P450 2C19, sequence (P33261 whole entry): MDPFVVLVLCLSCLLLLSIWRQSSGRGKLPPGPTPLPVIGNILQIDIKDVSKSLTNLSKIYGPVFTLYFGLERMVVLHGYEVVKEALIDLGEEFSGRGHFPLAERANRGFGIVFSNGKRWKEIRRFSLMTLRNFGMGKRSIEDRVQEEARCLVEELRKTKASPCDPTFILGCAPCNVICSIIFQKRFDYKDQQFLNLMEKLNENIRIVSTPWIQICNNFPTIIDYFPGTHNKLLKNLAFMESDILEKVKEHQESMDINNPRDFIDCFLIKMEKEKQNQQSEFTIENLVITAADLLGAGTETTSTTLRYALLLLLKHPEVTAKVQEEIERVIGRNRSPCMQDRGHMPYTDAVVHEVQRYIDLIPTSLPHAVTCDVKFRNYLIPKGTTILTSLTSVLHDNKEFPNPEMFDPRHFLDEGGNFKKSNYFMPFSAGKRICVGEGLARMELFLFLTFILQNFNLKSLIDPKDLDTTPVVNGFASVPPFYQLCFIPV
Cytochrome P450 2D6, sequence (P10635 whole entry): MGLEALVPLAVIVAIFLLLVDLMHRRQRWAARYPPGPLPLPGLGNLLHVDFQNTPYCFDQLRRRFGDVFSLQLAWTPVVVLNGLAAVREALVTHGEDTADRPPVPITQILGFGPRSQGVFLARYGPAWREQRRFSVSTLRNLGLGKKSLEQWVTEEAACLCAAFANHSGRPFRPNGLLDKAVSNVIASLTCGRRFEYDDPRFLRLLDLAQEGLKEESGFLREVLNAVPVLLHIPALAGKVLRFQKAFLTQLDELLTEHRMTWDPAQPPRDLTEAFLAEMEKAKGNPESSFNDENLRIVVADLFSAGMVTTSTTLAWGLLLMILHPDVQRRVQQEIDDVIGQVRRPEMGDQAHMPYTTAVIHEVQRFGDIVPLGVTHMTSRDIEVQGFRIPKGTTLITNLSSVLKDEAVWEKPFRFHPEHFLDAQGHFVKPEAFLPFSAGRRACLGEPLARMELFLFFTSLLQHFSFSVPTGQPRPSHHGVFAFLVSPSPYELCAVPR

AC50 ([3]; read-out: AC50): 25.1 µM (inconclusive)
AC50 [4]: 20 µM (inconclusive)
SMILES: COCCNc1ncnc2ccc(-c3ccc(N(C)C)cc3)cc12

AC50 [1]: 10 µM (inconclusive)
SMILES: CCNc1ncc2nc(-c3cc(F)cc(F)c3)c(=O)n(-c3ccccc3)c2n1

AC50 [4]: 15.8 µM (inconclusive)
SMILES: CCc1nnc(NC(=O)C2Cc3ccccc3CN2S(=O)(=O)c2ccc(C)cc2)s1 (stereo not drawn)

AC50 [1]: 28.2 µM (inconclusive)
SMILES: C=CCNC(=O)c1csc(-c2ccccc2)n1

IC50 [7]: 118 µM (active)
SMILES: COc1ccc(C(=O)CCC(=O)Nc2cc(Cl)c(O)c(Cl)c2)cc1

AC50 ([3]; read-out: AC50): 7.08 µM (inconclusive)
AC50 [4]: 31.6 µM (inconclusive)
SMILES: Clc1ccc(-c2nc3ncccn3c2Nc2ccc3c(c2)OCCO3)cc1

IC50 [7]: 41.4 µM (active)
SMILES: Clc1ccc(CNc2ccc(N3CCN(Cc4ccccc4)CC3)cc2)cc1

AC50 [1]: 3.16 µM (inconclusive)
SMILES: CCc1cc2c(nc1CC)CCN(CC/C(C)=N/O[C@@H](C)CN1CCCc3nc(C)c(C)cc31)C2

AC50 [1]: 3.98 µM (inconclusive)
SMILES: C#CCCCO/N=C1/[C@H]2O[C@@H]2[C@@H](O)[C@H]2[C@H]1CCn1c(=O)n([C@@H](CC)c3ccccc3)c(=O)n12

AC50 ([3]; read-out: AC50): 39.8 µM (inconclusive)
SMILES: CCNc1ncc2nc(CCc3ccccc3)c(=O)n(C[C@H]3CCCO3)c2n1

IC50 [7]: 50.5 µM (active)
SMILES: O=C(Oc1ccc2c(c1)OCO2)c1ccncc1

AC50 [4]: 20 µM (inconclusive)
SMILES: COc1ccccc1CN1CCCC2(CCNCC2)C1

AC50 [4]: 1 µM (inconclusive)
SMILES: Cc1ccc(SCCCn2cnc3ccccc3c2=O)cc1

AC50 ([3]; read-out: AC50): 39.8 µM (inconclusive)
AC50 [4]: 39.8 µM (inconclusive)
SMILES: CCc1cccc2nc3c(c([Si](C)(C)C)c12)Cn1c-3cccc1=O

EC50 [8]: > 53 µM (inactive)
SMILES: C=CCN1C(c2cccc(C(F)(F)F)c2)=CS/C1=C(/C#N)c1nnc(N2CCOCC2)n1-c1ccccc1

AC50 ([3]; read-out: AC50): 7.94 µM (inconclusive)
SMILES: CCC(=O)Nc1ccc2c(c1)C(=O)c1ccccc1C2=O

AC50 ([3]; read-out: AC50): 0.0126 µM (inconclusive)
AC50 [4]: 3.16 µM (inconclusive)
SMILES: COc1cccc([C@@H]2Oc3ccc(OC)cc3/C(=N/O[C@@H](C)CN3CCCCc4nc(C)c(C)cc43)[C@@H]2O)c1

AC50 [4]: 12.6 µM (inconclusive)
SMILES: COc1ccc(NC(=O)N2CC3(CCN(C(C)=O)CC3)C2)cc1

IC50 [7]: 133 µM (active)
SMILES: COc1cc(CN2CCC(C(=O)NC3CCCC3)CC2)ccc1O

AC50 ([3]; read-out: AC50): 7.94 µM (inconclusive)
AC50 [4]: 22.4 µM (inconclusive)
SMILES: CC(C)(C)c1ccc(C(=O)NCCC(=O)NCc2ccco2)cc1

AC50 [1]: 3.16 µM (inconclusive)
SMILES: c1ccc(C2=NN[C@@H]3c4ccccc4-c4ccccc4N3C2)cc1

EC50 [8]: > 53 µM (inactive)
SMILES: N#C/C(=C(/O)COC(=O)c1ccccc1O)c1nc2ccccc2s1

AC50 [1]: 11.2 µM (inconclusive)
SMILES: COc1ccc(-c2cc(C(=O)Nc3nc4c(C)cccc4s3)c3ccccc3n2)cc1OC

EC50 [8]: 7.87 µM (active)
SMILES: CCOC(=O)C1(CC2CCCCO2)CCN(Cc2cc3ccccc3[nH]2)CC1 (stereo not drawn)

IC50 [7]: 65.1 µM (active)
SMILES: COc1ccc(NC2CCCN(C(=O)CCN3Cc4ccccc4C3=O)C2)cc1 (stereo not drawn)

IC50 [7]: 19.5 µM (active)
SMILES: Cn1c(=O)c2nc(S)n(Cc3ccccc3)c2n(C)c1=O

AC50 ([3]; read-out: AC50): 0.0355 µM (inconclusive)
SMILES: Cc1ccc(N(C(=O)C(F)(F)F)C(C(=O)NC2CCCCC2)c2cccs2)cc1C (stereo not drawn)

EC50 [8]: > 53 µM (inactive)
SMILES: CN1CCc2c(sc(/N=C/c3cccs3)c2C(N)=O)C1

IC50 [7]: 342 µM (active)
SMILES: CCOC(=O)C1CCN(Cc2cccc(Oc3ccccc3)c2)CC1

AC50 [1]: 39.8 µM (inconclusive)
SMILES: Ic1ccc(N2CCN(Cc3c[nH]c4ncccc34)CC2)cc1

Second part, the compound before the results:

SMILES: O=S(=O)(NCc1cc(-c2ccc(Cl)cc2)no1)c1ccc(Cl)cc1
AC50 [1]: 25.1 µM (inconclusive)

SMILES: CC1(C(=O)OCC(=O)N2c3ccccc3Sc3ccccc32)CC1(Cl)Cl (stereo not drawn)
AC50 [2]: 37.4 µM (active)

SMILES: O=C1N(Cc2cccc(Cl)c2)C[C@@H]2C[C@@H](c3c[nH]c4ccccc34)N3CCC[C@@]123
EC50 [5]: 2 µM (active)
EC50 [6]: > 60 µM (inconclusive)

SMILES: CCCCOC(=O)Nc1nnc(C(C)C)s1
EC50 [5]: 1.26 µM (active)
EC50 [6]: 12.9 µM (active)

SMILES: c1csc(CNc2cc(-c3ccoc3)ncn2)c1
AC50 [1]: 25.1 µM (inconclusive)

SMILES: Cc1cccc(C(=O)NCCCN(C)CCCNC(=O)c2cccc(C)c2)c1
EC50 [5]: 0.894 µM (active)
EC50 [6]: > 60 µM (not active)

SMILES: Clc1ccc(C2=CCC[C@H]3CC[C@@H]2N3)cn1
AC50 [1]: 39.8 µM (inconclusive)

SMILES: CCOC(=O)C1=C(N)Oc2ccc3ccccc3c2C1c1cccnc1 (stereo not drawn)
EC50 [5]: 0.243 µM (active)
EC50 [6]: > 60 µM (not active)

SMILES: COc1ccc(-c2c[n+](-c3ccc(OC)cc3)c3n2-c2ccccc2CC3)cc1
AC50 [2]: 0.786 µM (active)

SMILES: Cc1c(Cl)cccc1NC(=O)CCCn1cnc([N+](=O)[O-])n1
EC50 [5]: 0.131 µM (active)
EC50 [6]: > 60 µM (not active)

SMILES: COc1ccccc1C1NC=C([N+](=O)[O-])C=C1[N+](=O)[O-] (stereo not drawn)
EC50 [5]: 1.73 µM (active)
EC50 [6]: > 60 µM (not active)

SMILES: C[C@@]1(C(=O)O)NCCc2cc(O)c(O)cc21
AC50 [1]: 31.6 µM (inconclusive)

SMILES: Cc1ccc(C(=O)NC(=S)NNC(=O)c2ccc([N+](=O)[O-])cc2)cc1
EC50 [8]: 4.2 µM (active)

SMILES: Cc1ccc(C(=O)NC(=S)Nc2ccc(CN3CCCCC3)cc2)c(C)c1
EC50 [5]: 0.98 µM (active)
EC50 [6]: 15.8 µM (active)

SMILES: CC(C)(CNc1ccc(S(=O)(=O)C(F)(F)F)cc1[N+](=O)[O-])N1CCOCC1
EC50 [5]: 2.42 µM (active)
EC50 [6]: 4.83 µM (active)

SMILES: O=[As](O)(O)c1ccc2nc3cc([As](=O)(O)O)ccc3nc2c1
AC50 [3]: inconclusive

SMILES: FC(F)(F)c1n[nH]c(SCc2ccc(Cl)cc2)n1
AC50 ([3]; read-out: AC50): 2.51 µM (inconclusive)

SMILES: Cc1ccc(S(=O)(=O)NCCn2cnc([N+](=O)[O-])n2)cc1
EC50 [5]: 0.116 µM (active)
EC50 [6]: > 60 µM (not active)

SMILES: CSCCC(NC(=O)c1ccco1)C(=O)OC(C)C(=O)NC(=O)NC1CCCCC1 (stereo not drawn)
EC50 [8]: 0.832 µM (active)

SMILES: Cc1cc(NC(=O)c2cccc(F)c2)no1
AC50 ([3]; read-out: AC50): 31.6 µM (inconclusive)

SMILES: CN1/C(=C\C(S)=Nc2ccccc2)C(C)(C)c2ccccc21
AC50 [2]: 8.05 µM (active)

SMILES: O=C1/C(=C\c2ccccn2)SC(=S)N1Nc1ncc(C(F)(F)F)cc1Cl
AC50 [4]: 17.8 µM (inconclusive)

SMILES: Cc1ccc(S(=O)(=O)/C=C\C#N)cc1
AC50 [1]: 39.8 µM (inconclusive)

SMILES: CCOC(=O)C1CCN(C(=O)C2CCN(S(=O)(=O)N3CCCC3)CC2)CC1
AC50 [3]: inconclusive

SMILES: CCCNC(=O)c1ccc(N2CCC3(CC2)CC(c2cccc(Br)c2)=NO3)c(NC(=O)c2ccccc2)c1
EC50 [5]: 2.5 µM (active)
EC50 [6]: > 60 µM (not active)

SMILES: COc1cccc(C(=O)Oc2c(Br)cc(Br)cc2/C=N/NC(=O)c2cc(C)[nH]n2)c1
AC50 [2]: 3.11 µM (active)
EC50 [5]: 0.942 µM (active)
EC50 [6]: 8.01 µM (active)

SMILES: CCCNC1=NC(=O)N(C)C(=O)/C1=N/O
AC50 ([3]; read-out: AC50): 28.2 µM (inconclusive)
AC50 [4]: 39.8 µM (inconclusive)

SMILES: C/C(Cn1nnc([N+](=O)[O-])n1)=N\NC(=O)c1ccccc1Cl
AC50 [2]: 10.5 µM (active)
EC50 [5]: 0.47 µM (active)
EC50 [6]: > 60 µM (not active)

SMILES: Brc1csc(/C=N\c2ccc3c(c2)OCCOCCOCCOCCO3)c1
IC50 [7]: 75.2 µM (active)

SMILES: C=CCN1C(=O)CS/C1=N/c1ccc(O)cc1
IC50 [7]: 25.8 µM (active)

SMILES: COc1ccccc1/C=N/OCc1cc(C(C)=O)ccc1OC
AC50 [2]: 44.6 µM (active)

SMILES: c1ccc(Nc2nc(-c3ccncc3)cs2)cc1
EC50 [5]: 0.544 µM (active)
EC50 [6]: > 60 µM (not active)
